We go through three compounds from patent publication US8399417B2, “Food” (Ajinomoto Co., Inc., priority 2007, dated 2013).

Common to all, as to type: in vivo, human
Experiment [1] can be described thus: Kokumi-imparting activity intensity, quantitative sensory evaluation test. Also noted: key: *: Unmeasurable: kokumi-imparting activity is too strong to measure by sensory evaluation.
Protocol: The quantitative sensory evaluation test was performed as follows. […] It should be noted that a sample, which became acidic after the sample had been dissolved, was adjusted with NaOH to pH 6.8 to 7.2 before use. […] The test was performed with n=3 based on the following sensory evaluation scores: control (0 point) and glutathione addition (3 points).
The quantitative sensory evaluation test was performed as follows. […] It should be noted that a sample, which became acidic after the sample had been dissolved, was adjusted with NaOH to pH 6.8 to 7.2 before use. The test was performed with n=5 based on the following sensory evaluation scores: control (0 point) and glutathione addition (3 points).
The quantitative sensory evaluation test was performed as follows. […] It should be noted that a sample, which became acidic after the sample had been dissolved, was adjusted with NaOH to pH 6.8 to 7.2 before use. The test was performed with n=12 based on the following sensory evaluation scores: control (0 point) and glutathione addition (3 points).
The nature of experiment [2]: Fat-like richness and smoothness imparted to low-fat milk, quantitative sensory evaluation test. The following applies: for Fat-like richness / Smoothness: n=12, control 0, strong 3, very strong 5 points. Here is the method:
The quantitative sensory evaluation test was performed as follows. Each of γ-Glu-Cys-Gly (glutathione), γ-Glu-Val-Gly, and γ-Glu-Abu-Gly was mixed with commercially-available low-fat milk (non-fat milk solids content: 8.6% or more, milk fat content: 1.5%) at a concentration of 0.00001 to 1 g/dl, and the intensity of imparting fat-like richness was measured.
It should be noted that each peptide was dissolved in low-fat milk, and then a sample, the pH of which was lowered, was adjusted with NaOH so that the pH might be ±0.2 with respect to the pH of the low-fat milk free of peptide.
The sensory score for fat-like richness and smoothness was defined as follows: control (free of peptide): 0 point; strong: 3 points; and very strong: 5 points. Then, the test was performed with n=12. […] As clear from Table 6, it was confirmed that the peptide imparted fat-like richness and smoothness to low-fat milk at a lower concentration than glutathione.
The quantitative sensory evaluation test was performed as follows. Each of γ-Glu-Val-Gly and cinacalcet was mixed with commercially-available low-fat milk (non-fat milk solids content: 8.6% or more, milk fat content: 1.5%) at a concentration of 0.00001 to 1 g/dl, and the intensity of imparting fat-like richness was measured.
It should be noted that each sample was dissolved in low-fat milk, and then a sample, the pH of which was lowered, was adjusted with NaOH so that the pH might be ±0.2 with respect to the pH of the low-fat milk free of a sample.
The sensory score for fat-like richness and smoothness was defined as follows: control (free of sample): 0 point; strong: 3 points; and very strong: 5 points. Then, the test was performed with n=12.

Experiment [3] in a line: Fat-like richness and smoothness imparted to low-calorie mayonnaise, quantitative sensory evaluation test. The following applies: for Fat-like richness / Smoothness: control 0, strong 3, very strong 5 points. Here is the method:
In the same manner as that in Example 1 except that commercially-available low-calorie mayonnaise (having a fat content reduced by 50% compared with a normal product) was used instead of low-fat milk, each peptide was measured for its fat-like richness-imparting intensity.
In the same manner as that in Example 2, each sample was measured for its intensity of imparting fat-like richness.

Where [4] appears, read: 0.01 g/dl, n=12, control 0, glutathione 3 points, Table 5.
[5] abbreviates: 0.001 g/dl in low-fat milk, Table 6.
[6] abbreviates: 0.01 g/dl in low-fat milk (milk fat 1.5%), Table 6.
The mark [7] stands for this setting: 0.01 g/dl in low-fat milk, Table 6.
The mark [8] stands for this setting: 0.001 g/dl in low-calorie mayonnaise, Table 7.
Setting [9] is: 0.01 g/dl in low-calorie mayonnaise (fat reduced by 50%), Table 7.
The mark [10] stands for this setting: 0.01 g/dl in low-calorie mayonnaise, Table 7.
Where [11] appears, read: 0.1 g/dl, n=5, control 0, glutathione 3 points, Table 4.
The mark [12] stands for this setting: 0.1 g/dl, n=12, control 0, glutathione 3 points, Table 5.
Setting [13] is: 0.01 g/dl, n=5, control 0, glutathione 3 points, Table 4.
Where [14] appears, read: 0.0001 g/dl in low-fat milk, Table 6.
[15] abbreviates: 0.001 g/dl in low-fat milk, Table 8.
Setting [16] is: 0.0001 g/dl in low-calorie mayonnaise, Table 7.
The mark [17] stands for this setting: 0.001 g/dl in low-calorie mayonnaise, Table 9.

Starred links: 1 amine or outer side, 2 acyl side, 3 side chain; linkers in the order of their positions; H or OH if unused. Non-standard residues stand in square brackets, D forms with d. No end group written: not given here. γGlu = O=C(O)[C@H](CCC(=O)[*:2])N[*:1]; Abu = CC[C@H](N)C(=O)O

With [γGlu]-[Abu]-Gly, the “Kokumi intensity, Aftertaste” value in experiment [1] (setting [4]) amounted to 2.0 points. In addition, the “Kokumi intensity, Initial and middle taste” value in experiment [1] (setting [4]) was 3.0 points. Moreover, the Fat-like richness was 2.3 points in experiment [2] (setting [5]), 4.3 points in experiment [2] (setting [6]), 3.2 points in experiment [3] (setting [8]) and 4.7 points in experiment [3] (setting [9]). Also, the Smoothness is listed as 3.0 points in experiment [2] (setting [5]), 4.0 points in experiment [2] (setting [7]), 3.0 points in experiment [3] (setting [8]) and 4.3 points in experiment [3] (setting [10]). For the same compound, the Taste profile result in experiment [3] (setting [8]) and in experiment [3] (setting [10]) was “Fat-like richness with sweet” in each case.

For `N[C@@H](CCC(=O)N[C@@H](CS)C(=O)NCC(=O)O)C(=O)O` [γ-Glu-Cys-Gly, reference compound], the Taste profile result was “Thickness, growth, and continuity” in experiment [1] (0.1 g/dl, n=3, Table 3); “Growth exists in the whole” in experiment [2] (setting [7]); “Fat-like richness with sweet” in experiment [3] (setting [10]). In addition, the “Kokumi intensity, Aftertaste” value amounted to 3.0 points in experiment [1] (0.1 g/dl, n=3, control 0, glutathione 3 points, Table 3); 3.0 points in experiment [1] (setting [11]); 3.0 points in experiment [1] (setting [12]). The “Kokumi intensity, Initial and middle taste” value in experiment [1] (setting [11]) is given as 3.0 points; in experiment [1] (setting [12]), 3.0 points; in experiment [1] (0.1 g/dl, sodium glutamate, inosine monophosphate, sodium chloride solution, n=3, control 0, glutathione 3 points, Table 3), 3.0 points. Also, the Fat-like richness is reported as 2.5 points in experiment [2] (setting [6]) and 3.5 points in experiment [3] (setting [9]). Also, the Smoothness in experiment [2] (setting [7]) and in experiment [3] (setting [10]) was 3.0 points in each case.

Take [γGlu]-Val-Gly: the “Kokumi intensity, Aftertaste” value was 3.0 points in experiment [1] (setting [13]); 3.0 points in experiment [1] (setting [4]); “*” in experiment [1] (0.1 g/dl, n=5, Table 4). Moreover, the “Kokumi intensity, Initial and middle taste” value is 3.0 points in experiment [1] (setting [13]); 3.0 points in experiment [1] (setting [4]); “*” in experiment [1] (0.1 g/dl, n=5, Table 4). For the same compound, the Taste profile result is “*” in experiment [1] (0.1 g/dl, n=5, Table 4); “Taste is enhanced in middle” in experiment [2] (setting [14]); “Taste is enhanced in middle” in experiment [2] (setting [5]); “Taste is enhanced in middle taste” in experiment [2] (setting [15]); “Taste is enhanced in middle” in experiment [3] (setting [16]); “Taste is enhanced in middle” in experiment [3] (setting [8]). The Taste profile entry in experiment [3] (setting [17]) is “Taste is enhanced in middle”. The Fat-like richness in experiment [2] (setting [14]) is recorded as 2.5 points; in experiment [2] (setting [5]), 4.5 points; in experiment [2] (setting [15]), 4.5 points; in experiment [3] (setting [16]), 3.0 points; in experiment [3] (setting [8]), 4.8 points; in experiment [3] (setting [17]), 4.8 points. For the same compound, the Smoothness amounted to 2.3 points in experiment [2] (setting [14]); 4.0 points in experiment [2] (setting [5]); 4.0 points in experiment [2] (setting [15]); 3.0 points in experiment [3] (setting [16]); 4.5 points in experiment [3] (setting [8]); 4.5 points in experiment [3] (setting [17]).
